Data published in the supplement of paper PMC10307832.

Columns and labels:
Assay in all cases: relative viability (nuclei count vs DMSO), 5 days (fraction); higher = more cells survive
Idelalisib + Alpelisib = compound: CC[C@H](Nc1ncnc2[nH]cnc12)c1nc2cccc(F)c2c(=O)n1-c1ccccc1 [Idelalisib] + Cc1nc(NC(=O)N2CCC[C@H]2C(N)=O)sc1-c1ccnc(C(C)(C)C(F)(F)F)c1 [Alpelisib] (partner 2 µM)
Summary of the method: (§1)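 Relative viability was taken as the ratio of nuclei in treated wells to nuclei in vehicle wells. Lung cancer cell lines in 1536-well plates received compounds by pin tool one day after seeding, either one drug alone or a fixed anchor-drug dose plus five library-drug doses (not always all listed) in √10 steps. Nuclei were counted on 4× images after 5 days of treatment, and values are medians of duplicate plates.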

Pemetrexed + Trametinib = compound: Nc1nc2[nH]cc(CCc3ccc(C(=O)N[C@@H](CCC(=O)O)C(=O)O)cc3)c2c(=O)[nH]1 [Pemetrexed] + CC(=O)Nc1cccc(-n2c(=O)n(C3CC3)c(=O)c3c(Nc4ccc(I)cc4F)n(C)c(=O)c(C)c32)c1 [Trametinib] (partner 0.02 µM)
Summary of the method: as §1

Pemetrexed + Bortezomib = compound: Nc1nc2[nH]cc(CCc3ccc(C(=O)N[C@@H](CCC(=O)O)C(=O)O)cc3)c2c(=O)[nH]1 [Pemetrexed] + CC(C)C[C@H](NC(=O)[C@H](Cc1ccccc1)NC(=O)c1cnccn1)B(O)O [Bortezomib] (partner 0.002 µM)
Summary of the method: as §1

Pemetrexed + Luminespib = compound: Nc1nc2[nH]cc(CCc3ccc(C(=O)N[C@@H](CCC(=O)O)C(=O)O)cc3)c2c(=O)[nH]1 [Pemetrexed] + CCNC(=O)c1noc(-c2cc(C(C)C)c(O)cc2O)c1-c1ccc(CN2CCOCC2)cc1 [Luminespib] (partner 0.01 µM)
Summary of the method: as §1

Cell Line | relative viability (Idelalisib + Alpelisib; first compound 0.04 µM) | relative viability (Idelalisib + Alpelisib; first compound 0.1265 µM) | relative viability (Idelalisib + Alpelisib; first compound 0.4 µM) | relative viability (Idelalisib + Alpelisib; first compound 1.265 µM) | relative viability (Idelalisib + Alpelisib; first compound 4 µM) | relative viability (Pemetrexed + Trametinib; first compound 0.002 µM) | relative viability (Pemetrexed + Trametinib; first compound 0.006325 µM) | relative viability (Pemetrexed + Trametinib; first compound 0.02 µM) | relative viability (Pemetrexed + Trametinib; first compound 0.06325 µM) | relative viability (Pemetrexed + Trametinib; first compound 0.2 µM) | relative viability (Pemetrexed + Bortezomib; first compound 0.002 µM) | relative viability (Pemetrexed + Bortezomib; first compound 0.006325 µM) | relative viability (Pemetrexed + Bortezomib; first compound 0.02 µM) | relative viability (Pemetrexed + Bortezomib; first compound 0.06325 µM) | relative viability (Pemetrexed + Bortezomib; first compound 0.2 µM) | relative viability (Pemetrexed + Luminespib; first compound 0.002 µM) | relative viability (Pemetrexed + Luminespib; first compound 0.006325 µM) | relative viability (Pemetrexed + Luminespib; first compound 0.02 µM) | relative viability (Pemetrexed + Luminespib; first compound 0.06325 µM) | relative viability (Pemetrexed + Luminespib; first compound 0.2 µM)
HCC-44 | 0.831 | 0.812 | 0.602 | 0.577 | 0.638 | 0.946 | 1.05 | 1.14 | 1.09 | 1.04 | 0.859 | 0.934 | 1.03 | 0.888 | 0.681 | 1.08 | 1.03 | 1.09 | 0.918 | 0.666
RERF-LC-KJ | 0.735 | 0.71 | 0.785 | 0.77 | 0.645 | 0.842 | 0.856 | 0.909 | 0.736 | 0.639 | 1.13 | 1.06 | 1.13 | 1.04 | 0.82 | 1.39 | 1.28 | 1.38 | 1.21 | 0.831
NCI-H1975 | 0.681 | 0.609 | 0.552 | 0.613 | 0.4 | 0.277 | 0.408 | 0.323 | 0.329 | 0.237 | – | 0.427 | 0.386 | 0.309 | 0.213 | 0.169 | 0.295 | 0.177 | 0.195 | 0.169
IA-LM | 0.787 | 0.754 | 0.884 | 0.72 | 0.84 | – | – | – | – | – | 0.81 | 0.82 | 0.943 | 0.695 | 0.641 | – | – | – | – | –
LCLC-97TM1 | 0.274 | 0.211 | – | 0.284 | 0.168 | 0.21 | 0.189 | 0.179 | 0.211 | 0.184 | 0.523 | 1.08 | 0.679 | 0.32 | 0.131 | 0.906 | 0.74 | 0.81 | 0.761 | 0.65
NCI-H520 | 0.862 | 0.878 | 0.64 | 0.769 | 0.349 | 0.569 | 0.682 | 0.757 | 0.606 | 0.657 | 0.29 | 0.64 | 0.542 | 0.526 | 0.395 | 0.215 | 0.234 | 0.223 | 0.261 | 0.2
ABC-1 | 0.956 | 1.22 | 1.08 | 1.13 | 0.807 | – | – | – | – | – | 0.244 | 0.297 | 0.322 | 0.214 | 0.292 | – | 0.521 | 0.709 | 0.777 | 0.637
NCI-H1395 | 1.17 | 0.987 | 0.974 | 1.15 | 0.694 | 0.932 | 1 | 1.13 | 0.954 | 1.03 | – | – | – | – | – | 0.8 | 0.718 | 0.678 | 0.528 | 0.758
EBC-1 | 0.961 | 0.941 | 0.684 | 0.658 | 0.349 | – | – | – | – | – | 0.57 | 0.5 | 0.642 | 0.54 | 0.542 | – | – | – | – | –
NCI-H358 | 1.03 | 0.894 | 0.857 | 0.94 | 0.719 | 0.133 | 0.117 | 0.151 | 0.125 | 0.125 | – | – | – | – | – | 0.268 | 0.368 | 0.227 | 0.367 | 0.146
ChaGo-K-1 | – | – | – | – | – | 0.902 | 0.848 | 0.871 | 0.662 | 0.31 | 1.09 | 1.11 | 1.05 | 0.332 | 0.307 | 0.582 | 0.577 | 0.608 | 0.47 | 0.239
A549 | 0.873 | 0.812 | 0.505 | 0.51 | 0.548 | – | – | – | – | – | – | – | – | – | – | – | – | – | – | –
NCI-H1563 | 0.839 | 1.03 | 0.807 | 0.825 | 0.669 | – | – | – | – | – | 0.784 | 0.869 | 0.978 | 0.855 | 0.932 | 0.496 | 0.505 | 0.562 | 0.481 | 0.569
NCI-H1703 | 0.37 | 0.304 | 0.273 | 0.272 | 0.207 | – | – | – | – | – | 0.277 | 0.224 | 0.605 | 0.248 | 0.271 | – | – | – | – | –
NCI-H1299 | 1.02 | 1.03 | 1.02 | 1.03 | 1.15 | – | – | – | – | – | 1.02 | 1.01 | 1.03 | 1.03 | 0.987 | – | – | – | – | –
HCC-366 | 0.429 | 0.4 | 0.28 | 0.245 | 0.183 | 0.39 | 0.311 | 0.406 | 0.341 | 0.302 | 0.97 | 1.04 | 1.13 | 1.05 | 0.661 | – | – | – | – | –
NCI-H522 | – | – | – | – | – | 0.971 | 0.722 | 0.739 | 0.784 | 0.73 | – | – | – | – | – | 1.21 | 1 | 1.29 | 1.12 | 1.24
NCI-H1648 | – | – | – | – | – | 0.517 | 0.292 | 0.63 | 0.398 | 0.442 | – | – | – | – | – | – | – | – | – | –
NCI-H1944 | 0.881 | 0.836 | 0.651 | 0.688 | 0.545 | 0.354 | 0.449 | 0.45 | 0.407 | 0.38 | – | – | – | – | – | – | 0.752 | 0.72 | 0.734 | 0.69
NCI-H2170 | 0.795 | 0.854 | 0.708 | 0.688 | 0.547 | 0.916 | 0.915 | 0.923 | 0.955 | 0.912 | – | – | – | – | – | 0.684 | 0.861 | 0.709 | 0.749 | 0.583
NCI-H1793 | 0.835 | 0.571 | 0.392 | 0.671 | 0.529 | 0.411 | 0.323 | 0.381 | 0.423 | 0.424 | – | – | – | – | – | 0.397 | 0.201 | 0.152 | 0.118 | 0.237
NCI-H1623 | – | – | – | – | – | – | – | – | – | – | – | – | – | – | – | 0.628 | 0.325 | 0.503 | 0.443 | 0.613
HCC-78 | 0.269 | 0.291 | 0.246 | 0.287 | 0.207 | – | 0.671 | 0.676 | 0.382 | 0.356 | 0.369 | 0.436 | 0.46 | 0.294 | 0.322 | – | – | – | – | –
